The values that follow come from patent publication US10633397B2, “Substituted polycyclic pyridone derivatives and prodrugs thereof” (priority 2015, dated 2020).

In brackets after ≈: the same amount, converted by molar mass. Like-named read-outs stand apart in the source and are kept apart here.

The nature of one data set: in vivo. The settings on record: oral vs intravenous administration, mice or SD rats, read-out: bioavailability (BA). On the procedure:
Materials and Methods for Experiments to Evaluate Oral Absorption
(1) Experimental animals: mice or SD rats were used.
(2) Rearing condition: mice or SD rats were allowed free access to solid feed and sterilized tap water.
(3) Setting of dosage and grouping: Oral administration and intravenous administration were performed with the predetermined dosage. Grouping was set as below. (Dosage was changed per compound)
Oral administration 1 to 30 mg/kg (n=2 to 3)
Intravenous administration 0.5 to 10 mg/kg (n=2 to 3)
(4) Preparation of administration solutions: Oral administration was performed as solution or suspension. Intravenous administration was performed after solubilization.
(5) Routes of administration: Oral administration was performed mandatory into the stomach by oral sonde. […]
(6) Evaluation items: Blood was collected serially and concentration of a compound of the present invention in plasma was measured by LC/MS/MS.
(7) Statistical analysis: About transition of concentration of a compound of the present invention in plasma, the area under the plasma concentration versus time curve (AUC) was calculated by non-linear least-squares method program, WinNonlin (a registered trademark), and bioavailability (BA) of a compound of the present invention was calculated from AUCs of the oral administration group and the intravenous administration group. […]

The subject of a further data set is influenza virus. The data set can be described thus: CPE inhibitory effect confirming assay. In kind it is cell-based. The settings on record: unidentified influenza virus, 72 h, read-out: CPE_EC50.
For the next data set, the target named is T1, hERG (IKr) (Homo sapiens, UniProt Q12809).
T1 construct: expressed in transfected cells; host or cells: HEK293
T1 sequence (Q12809 whole entry): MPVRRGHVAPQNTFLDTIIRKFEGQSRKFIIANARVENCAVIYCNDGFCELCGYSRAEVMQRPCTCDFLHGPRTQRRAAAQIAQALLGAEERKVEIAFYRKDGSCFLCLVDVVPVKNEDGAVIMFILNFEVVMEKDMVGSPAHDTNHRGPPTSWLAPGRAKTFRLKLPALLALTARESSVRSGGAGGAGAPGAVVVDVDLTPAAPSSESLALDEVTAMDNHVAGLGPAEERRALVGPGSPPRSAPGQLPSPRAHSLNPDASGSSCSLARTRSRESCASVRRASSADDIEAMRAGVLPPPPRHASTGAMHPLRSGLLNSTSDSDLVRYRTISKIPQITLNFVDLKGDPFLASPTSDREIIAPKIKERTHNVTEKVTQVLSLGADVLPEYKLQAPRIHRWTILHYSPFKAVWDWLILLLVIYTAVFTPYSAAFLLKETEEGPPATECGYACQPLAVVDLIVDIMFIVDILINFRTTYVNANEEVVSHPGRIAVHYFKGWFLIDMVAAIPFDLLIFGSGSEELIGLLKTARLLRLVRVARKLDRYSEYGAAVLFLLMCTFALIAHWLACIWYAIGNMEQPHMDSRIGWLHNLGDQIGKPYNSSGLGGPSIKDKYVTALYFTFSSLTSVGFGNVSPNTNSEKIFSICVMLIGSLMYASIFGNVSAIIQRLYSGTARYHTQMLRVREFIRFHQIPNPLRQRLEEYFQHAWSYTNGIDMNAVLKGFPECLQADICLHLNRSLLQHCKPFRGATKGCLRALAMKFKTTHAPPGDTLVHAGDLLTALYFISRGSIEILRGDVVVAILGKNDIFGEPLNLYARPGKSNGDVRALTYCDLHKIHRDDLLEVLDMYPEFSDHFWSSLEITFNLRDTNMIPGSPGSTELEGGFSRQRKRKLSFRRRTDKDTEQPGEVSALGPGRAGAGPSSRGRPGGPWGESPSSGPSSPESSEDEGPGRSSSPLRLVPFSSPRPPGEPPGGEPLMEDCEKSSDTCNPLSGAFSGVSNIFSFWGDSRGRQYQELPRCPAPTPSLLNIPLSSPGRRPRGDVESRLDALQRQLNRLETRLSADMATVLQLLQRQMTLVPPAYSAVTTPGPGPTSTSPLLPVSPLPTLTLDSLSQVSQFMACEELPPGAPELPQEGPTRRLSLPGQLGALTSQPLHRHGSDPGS
Nature of the data set: hERG test. In kind it is cell-based. The settings on record: HEK293 cells expressing hERG channel, pH 7.4, 0.3 to 10 μM of test compound, read-out: % inhibition of tail peak current (IKr). From the text: Test Example 8: hERG Test
For the purpose of assessing risk of an electrocardiogram QT interval prolongation of the compound of the present invention, effects of the compound of the present invention on delayed rectifier K+ current (IKr), which plays an important role in the ventricular repolarization process, was studied using HEK293 cells expressing human ether-a-go-go related gene (hERG) channel.
After a cell was retained at a membrane potential of −80 mV by whole cell patch clamp method using an automated patch clamp system (PatchXpress 7000A, Axon Instruments Inc.), IKr induced by depolarization pulse stimulation at +40 mV for 2 seconds and, further, repolarization pulse stimulation at −50 mV for 2 seconds, was recorded. After the generated current was stabilized, extracellular solution (NaCl: 135 mmol/L, KCl: 5.4 mmol/L, NaH2PO4: 0.3 mmol/L, CaCl2.2H2O: 1.8 mmol/L, MgCl2.6H2O: 1 mmol/L, glucose: 10 mmol/L, HEPES (4-(2-hydroxyethyl)-1-piperazineethanesulfonic acid): 10 mmol/L, pH=7.4), in which the compound of the present invention had been dissolved at an objective concentration, was applied to the cell at room temperature for 10 minutes. From the recording IKr, an absolute value of the tail peak current was measured based on the current value at the resting membrane potential using analysis software (DataXpress ver. 1, Molecular Devices Corporation).
A general note: hERG is a cardiac potassium channel; its block is linked to QT prolongation.

Data set [1] in a line: physchem. Type of data set: physicochemical. As to conditions: kinetic from dmso stock; 1% DMSO addition conditions; JP-1 or JP-2 solution not stated in result. How it is done: Test Example 9: Solubility Test
A 10 mmol/L solution of the compound was prepared with DMSO, and 2 μL of the solution of the compound of the present invention was added, respectively, to 198 μL of JP-1 solution (water were added to 2.0 g of sodium chloride and 7.0 mL of hydrochloric acid to reach 1000 mL) and JP-2 solution (1 volume of water were added to 1 volume of the solution which 3.40 g of potassium dihydrogen phosphate and 3.55 g of anhydrous disodium hydrogen phosphate to reach 1000 mL). The mixture was shaked for 1 hour at a room temperature, and the mixture was filtered. The filtrate was ten-fold diluted with methanol/water=1/1(v/v), and the compound concentration in the filtrate was measured with LC/MS or SPE/MS by the absolute calibration method.

Data set [2] can be described thus: physchem. Type of data set: physicochemical. The settings on record: thermodynamic from solid, 1 hour at 37° C. How it is done:
Test Example 10: Powder Solubility Test
Appropriate amounts of the compound of the present invention was put into vials and 200 μL of JP-1st Fluid (water was added to 2.0 g of sodium chloride in 7.0 mL of hydrochloride acid to reach 1000 mL), JP-2nd Fluid (water was added to 500 mL of phosphate buffer solution with a pH of 6.8) and 20 mmol/L sodium taurocholate (TCA)/JP-2nd Fluid (JP-2nd Fluid was added to 1.08 g of TCA in JP-2nd Fluid to reach 100 mL) was added to each vial. When the compound was completely dissolved, appropriate amount of compound was added. After shaken for 1 hour at 37° C., the mixture was filtered and 100 μL of methanol was added to 100 μL of each filtrate (double dilution). Dilution magnification was changed if necessary. After it was confirmed whether there were air bubbles and precipitates in the vials, the vials were shaken with tight stopper. The compound concentration was determined with HPLC by the absolute calibration method.

For data set [3], the system named is red blood cells prepared from a defibrinated blood of sheep. Nature of the data set: Light hemolysis test. Type of data set: cell-based. As to conditions: 10 J/cm^2 UV-irradiation, 0.0008 to 0.1 w/v %. How it is done: Test Example 12: Light Hemolysis Test
The compound of the present invention was dissolved at target concentrations and was mixed with a 2.5 v/v % suspension of red blood cells prepared from a defibrinated blood of sheep on a microplate at concentrations of 0.0008 to 0.1 w/v %. The mixtures were exposed to 10 J/cm^2 of UV-irradiation within a range of wavelength 290 to 400 nm, UVA and UVB using ultra violet fluorescent lamps, GL20SE and FL20S-BLB lamps manufactured by Sankyo Denki Co., Ltd. and Panasonic Corporation, respectively. After the completion of the irradiation, the mixtures were centrifuged, and a supernatant of the mixture was collected and was located on a microplate. The phototoxicity was assessed by measuring an absorbance at wavelength of 540 nm and 630 nm in the supernatant. The absorbance data at wavelength of 540 nm and 630 nm were used as indicators of biomembrane damage (photohemolysis %) and hyperoxidation of lipid membrane (methemoglobin formation), respectively. The criteria of phototoxicity was as follows; It was judged to be non-phototoxic (−) when the photohemolysis %<10 and the maximal change in the absorbance at 630 nm (ΔOD)<0.05 were observed. It was judged to be […] when the photohemolysis was more than 10% and the maximal change in the absorbance at 630 nm (ΔOD) was more than 0.05.

On to `O=C1c2c(O)c(=O)ccn2N([C@@H]2c3ccccc3SCc3c2ccc(F)c3F)[C@@H]2COCCN12` [III-2], for which the bioavailability (commonly dose-corrected exposure relative to a reference, in per cent) in the data set “in vivo” came out at 4.2%. The EC50 with influenza virus is 1.13 nM. Besides, the inhibition (in general, the percentage by which the read-out fell short of the control) at 10 min at hERG (IKr) was 7.9%. For the same compound, the solubility (in general, the dissolved amount per volume that the medium holds) was 42.2 µM (≈ 20.4 µg/mL) in the data set “physchem [1]”; 7.1 µg/mL (≈ 14.7 µM) in the data set “physchem [2]” (pH 1.2, simulated gastric fluid, JP-1 solution, read-out: powder solubility, JP-1 solution); 4.4 µg/mL (≈ 9.1 µM) in “physchem [2]” (pH 6.8, aqueous buffer, JP-2 solution, read-out: powder solubility, JP-2 solution); 16.1 µg/mL (≈ 33.3 µM) in the data set “physchem [2]” (pH 6.8, fassgf or other biorelevant, 20 mmol/L TCA/JP-2 solution). For the same compound, the phototoxicity entry in data set [3] was “(−) (It was judged to be non-phototoxic (−) when the photohemolysis %<10 and the maximal change in the absorbance at 630 nm (ΔOD)<0.05 were observed)”.
